In article PMC8640094, “Diaportones A–C: Three New Metabolites From Endophytic Fungus Diaporthe foeniculina BZM-15” (Frontiers in Chemistry, 2021):

Tests used:
MCF-7 (breast cancer) = experiment: MTT cytotoxicity assay, MCF-7 cells; type: cell-based, human; details: Homo sapiens; for inhibition at 1 µM / inhibition at 2 µM / inhibition at 4 µM / inhibition at 16 µM / inhibition at 32 µM / inhibition at 64 µM / inhibition at 128 µM / inhibition at 8 µM: MCF7, 72 h, three replicates, read-out: cell inhibition; for inhibition at 1 µM: MCF-7, c 1.00 μM; for inhibition at 2 µM: MCF-7, c 2.00 μM; for inhibition at 4 µM: MCF-7, c 4.00 μM; for inhibition at 16 µM: MCF-7, c 16.00 μM; for inhibition at 32 µM: MCF-7, c 32.00 μM; for inhibition at 64 µM: MCF-7, c 64.00 μM; for inhibition at 128 µM: MCF-7, c 128.00 μM; for IC50: MCF7, MTT, 72 h, mean ± SD (n = 3); for inhibition at 8 µM: MCF-7, c 8.00 μM
Protocol: (§1) The cytotoxicity of all compounds against three human tumor cell lines, SF-268 (CNS cancer), MCF-7 (breast cancer), and HepG2 (hepatoma cancer), and normal cell line LX-2 was tested using the MTT assay. […] All cells were seeded into 96-well plates at 5 × 10^4 cells/ml and incubated at 37°C under a 5% CO2 atmosphere for 24 h. Then, the tested compounds were added. After 72 h, MTT solution was added into each well, which was further incubated. The cell-free supernatant was removed and formazan crystals were subsequently dissolved in DMSO. Optical density (OD) was recorded at 490 nm on a microplate reader to calculate the IC50 values.

SF-268 (CNS cancer) = experiment: MTT cytotoxicity assay, SF-268 cells; type: cell-based, human; details: Homo sapiens; for inhibition at 1 µM / inhibition at 2 µM / inhibition at 4 µM / inhibition at 8 µM / inhibition at 16 µM / inhibition at 32 µM / inhibition at 64 µM / inhibition at 128 µM: SF-268, 72 h, SF268 cells, triplicate values, read-out: cell inhibition; for inhibition at 1 µM: c 1.00 μM; for inhibition at 2 µM: c 2.00 μM; for inhibition at 4 µM: c 4.00 μM; for inhibition at 8 µM: c 8.00 μM; for inhibition at 16 µM: c 16.00 μM; for inhibition at 32 µM: c 32.00 μM; for inhibition at 64 µM: c 64.00 μM; for inhibition at 128 µM: c 128.00 μM; for IC50: SF-268, MTT, 72 h, mean ± SD (n = 3), read-out: IC50 SF268
Protocol: (§2) The cytotoxicity of all compounds against three human tumor cell lines, SF-268 (CNS cancer), MCF-7 (breast cancer), and HepG2 (hepatoma cancer), and normal cell line LX-2 was tested using the MTT assay. Adriamycin was used as a positive control. All cells were seeded into 96-well plates at 5 × 10^4 cells/ml and incubated at 37°C under a 5% CO2 atmosphere for 24 h. Then, the tested compounds were added. After 72 h, MTT solution was added into each well, which was further incubated. The cell-free supernatant was removed and formazan crystals were subsequently dissolved in DMSO. Optical density (OD) was recorded at 490 nm on a microplate reader to calculate the IC50 values.

HepG2 (hepatoma cancer) = experiment: MTT cytotoxicity assay, HepG2 cells; type: cell-based, human; details: Homo sapiens; for inhibition at 1 µM / inhibition at 2 µM / inhibition at 4 µM / inhibition at 8 µM / inhibition at 16 µM / inhibition at 32 µM / inhibition at 64 µM / inhibition at 128 µM: HepG2, 72 h, three replicates, read-out: cell inhibition; for inhibition at 1 µM: HepG2, c 1.00 μM; for inhibition at 2 µM: HepG2, c 2.00 μM; for inhibition at 4 µM: HepG2, c 4.00 μM; for inhibition at 8 µM: HepG2, c 8.00 μM; for inhibition at 16 µM: HepG2, c 16.00 μM; for inhibition at 32 µM: HepG2, c 32.00 μM; for inhibition at 64 µM: HepG2, c 64.00 μM; for inhibition at 128 µM: HepG2, c 128.00 μM; for IC50: HepG2, MTT, 72 h, mean ± SD (n = 3)
Protocol: as §2

normal cell line LX-2 = experiment: MTT cytotoxicity assay, normal cell line LX-2; type: cell-based; details: 72 h; for inhibition at 1 µM: LX-2, c 1.00 μM; for inhibition at 1 µM / inhibition at 2 µM / inhibition at 4 µM / inhibition at 8 µM / inhibition at 16 µM / inhibition at 32 µM / inhibition at 64 µM / inhibition at 128 µM: three replicates; for inhibition at 2 µM: LX-2, c 2.00 μM; for inhibition at 4 µM: LX-2, c 4.00 μM; for inhibition at 8 µM: LX-2, c 8.00 μM; for inhibition at 16 µM: LX-2, c 16.00 μM; for inhibition at 32 µM: LX-2, c 32.00 μM; for inhibition at 64 µM: LX-2, c 64.00 μM; for inhibition at 128 µM: LX-2, c 128.00 μM; for IC50: MTT, mean ± SD (n = 3)
Protocol: as §1

Compound | inhibition at 1 µM (MCF-7 (breast cancer)) | inhibition at 2 µM (MCF-7 (breast cancer)) | inhibition at 4 µM (MCF-7 (breast cancer)) | inhibition at 16 µM (MCF-7 (breast cancer)) | inhibition at 32 µM (MCF-7 (breast cancer)) | inhibition at 64 µM (MCF-7 (breast cancer)) | inhibition at 128 µM (MCF-7 (breast cancer)) | IC50 (MCF-7 (breast cancer)) | inhibition at 1 µM (SF-268 (CNS cancer)) | inhibition at 2 µM (SF-268 (CNS cancer)) | inhibition at 4 µM (SF-268 (CNS cancer)) | inhibition at 8 µM (SF-268 (CNS cancer)) | inhibition at 16 µM (SF-268 (CNS cancer)) | inhibition at 32 µM (SF-268 (CNS cancer)) | inhibition at 64 µM (SF-268 (CNS cancer)) | inhibition at 128 µM (SF-268 (CNS cancer)) | IC50 (SF-268 (CNS cancer)) | inhibition at 1 µM (HepG2 (hepatoma cancer)) | inhibition at 2 µM (HepG2 (hepatoma cancer)) | inhibition at 4 µM (HepG2 (hepatoma cancer)) | further results
COc1cccc2c1C(=O)c1c(O)c3c(c(O)c1C2=O)C[C@@](O)(C(=O)CO)C[C@@H]3O[C@H]1C[C@H](N)[C@H](O)[C@H](C)O1 [Adriamycin, reference compound] | 27.9% | 51.4% | 66.5% | 97% | 97.4% | 97.1% | 97.4% | 1.5 ± 0.01 µM | 35.4% | 51.1% | 69.9% | 76% | 90.9% | 96.4% | 96.5% | 95.1% | 1.9 ± 0.03 µM | 33.1% | 48.5% | 66.2% | inhibition at 8 µM (HepG2 (hepatoma cancer)): 74.1%; inhibition at 16 µM (HepG2 (hepatoma cancer)): 89.4%; inhibition at 32 µM (HepG2 (hepatoma cancer)): 86.2%; inhibition at 64 µM (HepG2 (hepatoma cancer)): 96.3%; inhibition at 128 µM (HepG2 (hepatoma cancer)): 95.3%; IC50 (HepG2 (hepatoma cancer)): 2.2 ± 0.03 µM; inhibition at 1 µM (normal cell line LX-2): 8.56%; inhibition at 2 µM (normal cell line LX-2): 9.36%; inhibition at 4 µM (normal cell line LX-2): 14.5%; inhibition at 8 µM (normal cell line LX-2): 26.4%; inhibition at 16 µM (normal cell line LX-2): 43.4%; inhibition at 32 µM (normal cell line LX-2): 56.2%; inhibition at 64 µM (normal cell line LX-2): 77.2%; inhibition at 128 µM (normal cell line LX-2): 98.1%; IC50 (normal cell line LX-2): > 40 µM
CC1(O)CC2OC23C(C)(C)C(Cl)CCC3(C)C1C(=O)O (centres unmarked) [compound 6, altiloxin B] | 1.37% | 4.01% | 8.56% | 18.9% | 24.3% | 59.3% | 66.4% | > 40 µM | 3.44% | 5.06% | 7.23% | 9.25% | 12.9% | 22.6% | 49.5% | 60.3% | > 40 µM | 1.37% | 5.78% | 10.6% | inhibition at 8 µM (MCF-7 (breast cancer)): 13%; inhibition at 8 µM (HepG2 (hepatoma cancer)): 14.6%; inhibition at 16 µM (HepG2 (hepatoma cancer)): 19.5%; inhibition at 32 µM (HepG2 (hepatoma cancer)): 26.6%; inhibition at 64 µM (HepG2 (hepatoma cancer)): 63.3%; inhibition at 128 µM (HepG2 (hepatoma cancer)): 79.7%; IC50 (HepG2 (hepatoma cancer)): > 40 µM; inhibition at 1 µM (normal cell line LX-2): 8.12%; inhibition at 2 µM (normal cell line LX-2): 11.8%; inhibition at 4 µM (normal cell line LX-2): 15.9%; inhibition at 8 µM (normal cell line LX-2): 26.5%; inhibition at 16 µM (normal cell line LX-2): 31.3%; inhibition at 32 µM (normal cell line LX-2): 40.5%; inhibition at 64 µM (normal cell line LX-2): 65%; inhibition at 128 µM (normal cell line LX-2): 73.5%; IC50 (normal cell line LX-2): > 40 µM
CC(=O)OC(C)C(C)=CC=CC1(C)OC(=O)C(C)C1O (centres unmarked) [compound 1, diaportone A] | 7.76% | 12.6% | 17.8% | 29.1% | 32.5% | 78.1% | 83.4% | > 40 µM | 2.75% | 3.91% | 3.45% | 6.33% | 15.7% | 22.2% | 37.9% | 69.3% | > 40 µM | 8.32% | 14.4% | 21.3% | inhibition at 8 µM (MCF-7 (breast cancer)): 23.1%; inhibition at 8 µM (HepG2 (hepatoma cancer)): 23.1%; inhibition at 16 µM (HepG2 (hepatoma cancer)): 30.1%; inhibition at 32 µM (HepG2 (hepatoma cancer)): 46.5%; inhibition at 64 µM (HepG2 (hepatoma cancer)): 71.3%; inhibition at 128 µM (HepG2 (hepatoma cancer)): 80.3%; IC50 (HepG2 (hepatoma cancer)): > 40 µM; inhibition at 1 µM (normal cell line LX-2): 3.47%; inhibition at 2 µM (normal cell line LX-2): 5.08%; inhibition at 4 µM (normal cell line LX-2): 9.11%; inhibition at 8 µM (normal cell line LX-2): 8.98%; inhibition at 16 µM (normal cell line LX-2): 15.6%; inhibition at 32 µM (normal cell line LX-2): 31.7%; inhibition at 64 µM (normal cell line LX-2): 45.1%; inhibition at 128 µM (normal cell line LX-2): 70.3%; IC50 (normal cell line LX-2): > 40 µM
CCCC(O)C1=C(C)C(=O)C(C)C1 (centres unmarked) [compound 3, diaportone B] | 8.01% | 13.3% | 14.8% | 30.5% | 41.4% | 62.7% | 76.1% | > 40 µM | 6.32% | 12% | 19.4% | 21.4% | 27.3% | 28.5% | 34.1% | 59.4% | > 40 µM | 8.12% | 14.3% | 19.2% | inhibition at 8 µM (MCF-7 (breast cancer)): 21.4%; inhibition at 8 µM (HepG2 (hepatoma cancer)): 25.3%; inhibition at 16 µM (HepG2 (hepatoma cancer)): 30.6%; inhibition at 32 µM (HepG2 (hepatoma cancer)): 42.1%; inhibition at 64 µM (HepG2 (hepatoma cancer)): 54.8%; inhibition at 128 µM (HepG2 (hepatoma cancer)): 75.3%; IC50 (HepG2 (hepatoma cancer)): > 40 µM; inhibition at 1 µM (normal cell line LX-2): 6.32%; inhibition at 2 µM (normal cell line LX-2): 5.31%; inhibition at 4 µM (normal cell line LX-2): 11.4%; inhibition at 8 µM (normal cell line LX-2): 20.6%; inhibition at 16 µM (normal cell line LX-2): 28.3%; inhibition at 32 µM (normal cell line LX-2): 34.8%; inhibition at 64 µM (normal cell line LX-2): 50.5%; inhibition at 128 µM (normal cell line LX-2): 70.2%; IC50 (normal cell line LX-2): > 40 µM
CC(C)[C@@H](C)/C=C/[C@@H](C)C1CCC2C3=CC(=O)OC4=CC(=O)CC[C@]4(C)C3CC[C@@]21C (some centres unmarked) [compound 9, fortisterol] | 6.87% | 14.1% | 17.4% | 31.4% | 43.2% | 76.1% | 86.4% | > 40 µM | 8.97% | 14.6% | 19.2% | 24.9% | 30.3% | 45.1% | 80.5% | 82.4% | > 40 µM | 5.37% | 11.1% | 15.3% | inhibition at 8 µM (MCF-7 (breast cancer)): 21.5%; inhibition at 8 µM (HepG2 (hepatoma cancer)): 20.5%; inhibition at 16 µM (HepG2 (hepatoma cancer)): 31.6%; inhibition at 32 µM (HepG2 (hepatoma cancer)): 48.2%; inhibition at 64 µM (HepG2 (hepatoma cancer)): 75.7%; inhibition at 128 µM (HepG2 (hepatoma cancer)): 89.3%; IC50 (HepG2 (hepatoma cancer)): > 40 µM; inhibition at 1 µM (normal cell line LX-2): 9.02%; inhibition at 2 µM (normal cell line LX-2): 13.6%; inhibition at 4 µM (normal cell line LX-2): 18.5%; inhibition at 8 µM (normal cell line LX-2): 25.5%; inhibition at 16 µM (normal cell line LX-2): 31.9%; inhibition at 32 µM (normal cell line LX-2): 44.7%; inhibition at 64 µM (normal cell line LX-2): 79.3%; inhibition at 128 µM (normal cell line LX-2): 82.5%; IC50 (normal cell line LX-2): > 40 µM
